In patent publication US12150998B2, “Bicyclic peptide ligands specific for P-selectin” (BicycleTx Limited, priority 2021, dated 2024) one finds Kd data, which are given here for four molecules.

For orientation: Kd means the equilibrium constant for the complex coming apart.

Read-outs that look alike come from different tables or passages of the source. Starred links: 1 amine or outer side, 2 acyl side, 3 side chain; linkers in the order of their positions; H or OH if unused. Positions of bridges follow the written chain, without caps; N, C: chain ends. Chains are numbered I, II in the order given. X3 = O=C(CCOCCN(CCOCCC(=O)NCCOCCOCCOCCOCCOCCOCCOCCOCCOCCOCCOCCOCCOCCOCCOCCOCCOCCOCCOCCOCCOCCOCCOCCn1cc(CCC(=O)[*:2])nn1)CCOCCC(=O)NCCOCCOCCOCCOCCOCCOCCOCCOCCOCCOCCOCCOCCOCCOCCOCCOCCOCCOCCOCCOCCOCCOCCOCCn1cc(CCC(=O)[*:3])nn1)NCCOCCOCCOCCOCCOCCOCCOCCOCCOCCOCCOCCOCCOCCOCCOCCOCCOCCOCCOCCOCCOCCOCCOCCn1cc(CCC(=O)[*:1])nn1; X4 = O=C(CCOCCN(CCOCCC(=O)NCCOCCOCCOCCOCCOCCOCCOCCOCCOCCOCCn1cc(CCC(=O)[*:2])nn1)CCOCCC(=O)NCCOCCOCCOCCOCCOCCOCCOCCOCCOCCOCCn1cc(CCC(=O)[*:3])nn1)NCCOCCOCCOCCOCCOCCOCCOCCOCCOCCOCCn1cc(CCC(=O)[*:1])nn1; TATA = O=C(CC[*:1])N1CN(C(=O)CC[*:2])CN(C(=O)CC[*:3])C1

In the assay the target is T1, human P-Selectin protein (Homo sapiens, UniProt P16109).
T1 sequence (P16109 42-830): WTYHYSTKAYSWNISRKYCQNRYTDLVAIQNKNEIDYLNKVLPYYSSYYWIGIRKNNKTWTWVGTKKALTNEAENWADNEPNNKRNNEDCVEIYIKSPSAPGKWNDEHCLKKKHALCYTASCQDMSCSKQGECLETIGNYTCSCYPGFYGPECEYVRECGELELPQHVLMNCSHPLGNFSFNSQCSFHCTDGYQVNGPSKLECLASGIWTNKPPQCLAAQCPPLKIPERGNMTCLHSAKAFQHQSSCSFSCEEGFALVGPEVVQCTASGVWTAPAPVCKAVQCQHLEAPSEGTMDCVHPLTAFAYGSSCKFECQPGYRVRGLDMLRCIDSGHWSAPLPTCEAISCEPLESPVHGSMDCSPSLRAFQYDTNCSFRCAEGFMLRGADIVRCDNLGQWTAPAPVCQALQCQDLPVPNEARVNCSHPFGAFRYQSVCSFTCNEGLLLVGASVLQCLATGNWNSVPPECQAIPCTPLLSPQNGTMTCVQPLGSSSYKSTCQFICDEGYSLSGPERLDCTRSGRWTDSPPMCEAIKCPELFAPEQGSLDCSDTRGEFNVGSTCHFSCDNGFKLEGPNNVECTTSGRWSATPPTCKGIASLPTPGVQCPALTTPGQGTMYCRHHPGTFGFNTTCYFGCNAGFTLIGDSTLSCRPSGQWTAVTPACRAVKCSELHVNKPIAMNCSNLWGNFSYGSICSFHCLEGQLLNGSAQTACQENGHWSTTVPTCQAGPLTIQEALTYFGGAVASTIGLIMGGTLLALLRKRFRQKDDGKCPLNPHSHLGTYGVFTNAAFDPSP
In words: SPR binding assay (Biacore). Particulars: recombinant biotinylated human P-Selectin, 25° C. How it is done: Biacore experiments were performed to determine ka (M−1s−1), kd (s−1), KD (nM) values of monomeric peptides binding to human Selectin proteins. Recombinant biotinylated human P-Selectin protein was used. For analysis of binding, either a Biacore 3000 or 5200 instrument was used with a CMS sensor chip (GE Healthcare). For sensor chip surface preparation, streptavidin was immobilized on the chip using standard amine-coupling chemistry at 25° C. with HBS-N (10 mM HEPES, 0.15 M NaCl, pH 7.4) as the running buffer. The carboxymethyl dextran surface was activated with a 12 min injection of a 1:1 ratio of 0.4 M 1-ethyl-3-(3-dim ethyl aminopropyl) carbodiimide hydrochloride (EDC)/0.1 M N-hydroxy succinimide (NHS) at a flow rate of 10 μl/min. For capture of streptavidin, protein was diluted to 0.2 mg/ml in 10 mM sodium acetate (pH 4.5) and captured by injecting 70 μl onto the activated chip surface. Residual activated groups were blocked with a 7 min injection of 1 M ethanolamine (pH 8.5). Biotinylated protein stock was diluted 1:100 in HBS-N and captured on one flow cell at 5 μl/min to a level of 1000-1500 RU. Buffer was changed to PBS/0.05% Tween 20 and a dilution series of the peptides was prepared in this buffer with a final DMSO concentration of 0.5%. The top concentration of the analyte varied from 200 nM to 50 μM; depending on predicted affinity of the interaction. In all cases a titration was performed with either seven 2-fold dilutions or five 3-fold dilutions. The SPR analysis was run at 25° C. with a flow rate of 50-80 μl/min with 60 seconds association and a suitable disassociation period (100-900 seconds). Data were corrected for DMSO excluded volume effects. All data were double-referenced for blank injections and reference surface using standard processing procedures and data processing and kinetic fitting were performed using Scrubber software, version 2.0c (BioLogic Software). Data were fitted using mass transport model allowing for mass transport effects where appropriate.
In general terms: SPR reads the build-up and loss of mass on a sensor chip optically.

For the molecule `CSCC[C@@H]1NC(=O)[C@H](Cc2ccc(O)cc2)NC(=O)[C@@H](NC(=O)[C@H](C)NC(C)=O)CSCCC(=O)N2CN3CN(C2)C(=O)CCSC[C@H](NC(=O)[C@H](Cc2c[nH]c4ccccc24)NC(=O)[C@H](CCC(=O)O)NC1=O)C(=O)N[C@@H](CC(=O)O)C(=O)N[C@@H](C(C)C)C(=O)N[C@@H]([C@@H](C)O)C(=O)N[C@@H](CC(=O)O)C(=O)N[C@@H](Cc1ccc(O)cc1)C(=O)NCC(=O)N[C@H](C(=O)N[C@@H](CCCCNC(=O)CCc1cn(CCOCCOCCOCCOCCOCCOCCOCCOCCOCCOCCNC(=O)CCOCC(COCCC(=O)NCCOCCOCCOCCOCCOCCOCCOCCOCCOCCOCCn2cc(CCC(=O)NCCCC[C@H](NC(=O)[C@@H]4CSCCC(=O)N5CN6CN(C5)C(=O)CCSC[C@H](NC(=O)[C@H](Cc5c[nH]c7ccccc57)NC(=O)[C@H](CCC(=O)O)NC(=O)[C@H](CCSC)NC(=O)[C@H](Cc5ccc(O)cc5)NC(=O)[C@@H](NC(=O)[C@H](C)NC(C)=O)CSCCC6=O)C(=O)N[C@@H](CC(=O)O)C(=O)N[C@@H](C(C)C)C(=O)N[C@@H]([C@@H](C)O)C(=O)N[C@@H](CC(=O)O)C(=O)N[C@@H](Cc5ccc(O)cc5)C(=O)NCC(=O)N4)C(N)=O)nn2)(COCCC(=O)NCCOCCOCCOCCOCCOCCOCCOCCOCCOCCOCCn2cc(CCC(=O)NCCCC[C@H](NC(=O)[C@@H]4CSCCC(=O)N5CN6CN(C5)C(=O)CCSC[C@H](NC(=O)[C@H](Cc5c[nH]c7ccccc57)NC(=O)[C@H](CCC(=O)O)NC(=O)[C@H](CCSC)NC(=O)[C@H](Cc5ccc(O)cc5)NC(=O)[C@@H](NC(=O)[C@H](C)NC(C)=O)CSCCC6=O)C(=O)N[C@@H](CC(=O)O)C(=O)N[C@@H](C(C)C)C(=O)N[C@@H]([C@@H](C)O)C(=O)N[C@@H](CC(=O)O)C(=O)N[C@@H](Cc5ccc(O)cc5)C(=O)NCC(=O)N4)C(N)=O)nn2)COCCC(=O)NCCOCCOCCOCCOCCOCCOCCOCCOCCOCCOCCn2cc(CCC(=O)NCCCC[C@H](NC(=O)[C@@H]4CSCCC(=O)N5CN6CN(C5)C(=O)CCSC[C@H](NC(=O)[C@H](Cc5c[nH]c7ccccc57)NC(=O)[C@H](CCC(=O)O)NC(=O)[C@H](CCSC)NC(=O)[C@H](Cc5ccc(O)cc5)NC(=O)[C@@H](NC(=O)[C@H](C)NC(C)=O)CSCCC6=O)C(=O)N[C@@H](CC(=O)O)C(=O)N[C@@H](C(C)C)C(=O)N[C@@H]([C@@H](C)O)C(=O)N[C@@H](CC(=O)O)C(=O)N[C@@H](Cc5ccc(O)cc5)C(=O)NCC(=O)N4)C(N)=O)nn2)nn1)C(N)=O)CSCCC3=O` [BCY5464], under “Affinity KD determined by SPR”, the Kd worked out at 0.0373 µM.
On to `CSCC[C@@H]1NC(=O)[C@H](Cc2ccc(O)cc2)NC(=O)[C@@H](NC(=O)[C@H](C)NC(C)=O)CSCCC(=O)N2CN3CN(C2)C(=O)CCSC[C@H](NC(=O)[C@H](Cc2c[nH]c4ccccc24)NC(=O)[C@H](CCC(=O)O)NC1=O)C(=O)N[C@@H](CC(=O)O)C(=O)N[C@@H](C(C)C)C(=O)N[C@@H]([C@@H](C)O)C(=O)N[C@@H](CC(=O)O)C(=O)N[C@@H](Cc1ccc(O)cc1)C(=O)NCC(=O)N[C@H](C(=O)N[C@@H](CCCCNC(=O)CCc1cn(CCOCCOCCOCCOCCOCCOCCOCCOCCOCCOCCOCCOCCOCCOCCOCCOCCOCCOCCOCCOCCOCCOCCOCCNC(=O)CCOCC(COCCC(=O)NCCOCCOCCOCCOCCOCCOCCOCCOCCOCCOCCOCCOCCOCCOCCOCCOCCOCCOCCOCCOCCOCCOCCOCCn2cc(CCC(=O)NCCCC[C@H](NC(=O)[C@@H]4CSCCC(=O)N5CN6CN(C5)C(=O)CCSC[C@H](NC(=O)[C@H](Cc5c[nH]c7ccccc57)NC(=O)[C@H](CCC(=O)O)NC(=O)[C@H](CCSC)NC(=O)[C@H](Cc5ccc(O)cc5)NC(=O)[C@@H](NC(=O)[C@H](C)NC(C)=O)CSCCC6=O)C(=O)N[C@@H](CC(=O)O)C(=O)N[C@@H](C(C)C)C(=O)N[C@@H]([C@@H](C)O)C(=O)N[C@@H](CC(=O)O)C(=O)N[C@@H](Cc5ccc(O)cc5)C(=O)NCC(=O)N4)C(N)=O)nn2)(COCCC(=O)NCCOCCOCCOCCOCCOCCOCCOCCOCCOCCOCCOCCOCCOCCOCCOCCOCCOCCOCCOCCOCCOCCOCCOCCn2cc(CCC(=O)NCCCC[C@H](NC(=O)[C@@H]4CSCCC(=O)N5CN6CN(C5)C(=O)CCSC[C@H](NC(=O)[C@H](Cc5c[nH]c7ccccc57)NC(=O)[C@H](CCC(=O)O)NC(=O)[C@H](CCSC)NC(=O)[C@H](Cc5ccc(O)cc5)NC(=O)[C@@H](NC(=O)[C@H](C)NC(C)=O)CSCCC6=O)C(=O)N[C@@H](CC(=O)O)C(=O)N[C@@H](C(C)C)C(=O)N[C@@H]([C@@H](C)O)C(=O)N[C@@H](CC(=O)O)C(=O)N[C@@H](Cc5ccc(O)cc5)C(=O)NCC(=O)N4)C(N)=O)nn2)COCCC(=O)NCCOCCOCCOCCOCCOCCOCCOCCOCCOCCOCCOCCOCCOCCOCCOCCOCCOCCOCCOCCOCCOCCOCCOCCn2cc(CCC(=O)NCCCC[C@H](NC(=O)[C@@H]4CSCCC(=O)N5CN6CN(C5)C(=O)CCSC[C@H](NC(=O)[C@H](Cc5c[nH]c7ccccc57)NC(=O)[C@H](CCC(=O)O)NC(=O)[C@H](CCSC)NC(=O)[C@H](Cc5ccc(O)cc5)NC(=O)[C@@H](NC(=O)[C@H](C)NC(C)=O)CSCCC6=O)C(=O)N[C@@H](CC(=O)O)C(=O)N[C@@H](C(C)C)C(=O)N[C@@H]([C@@H](C)O)C(=O)N[C@@H](CC(=O)O)C(=O)N[C@@H](Cc5ccc(O)cc5)C(=O)NCC(=O)N4)C(N)=O)nn2)nn1)C(N)=O)CSCCC3=O` [BCY5465], for which, for the setting “Affinity KD determined by SPR”, the Kd was 0.14 µM.
The same measure, in the same setting: then “I: Ac-ACYMEWCDVTDYGCK-NH2 / II: Ac-ACYMEWCDVTDYGCK-NH2 / III: Ac-ACYMEWCDVTDYGCK-NH2 (linker I:2-I:7-I:14, II:2-II:7-II:14, III:2-III:7-III:14 via TATA; linker I:15-II:15-III:15 via X3) [BCY5461]”, with 0.23 µM.
“I: Ac-ACYMEWCDVTDYGCK-NH2 / II: Ac-ACYMEWCDVTDYGCK-NH2 / III: Ac-ACYMEWCDVTDYGCK-NH2 (linker I:2-I:7-I:14, II:2-II:7-II:14, III:2-III:7-III:14 via TATA; linker I:15-II:15-III:15 via X4) [BCY5460]”: the Kd (read-out: Affinity KD determined by SPR) came to 0.239 µM.
